This note sets out measurements from PubChem BioAssay AID489027 (Sanford-Burnham Center for Chemical Genomics, 2010).

Molecules are shown by their SMILES. Activity calls are given as the source filed them. How the calls were made is not given here.

What is called EC50 is the concentration giving half of the maximal effect.

The assay addresses UPR counterscreen luciferase reporter, luminescence. The experiment in a line: activators in UPR counterscreen luciferase reporter, dose response, counter-screen for adaptive UPR activator project, cell-based, luminescence (AID 489027).

Consider `CN(C)CCCNC(=O)c1ccc(-c2nc(-c3ccc(Cl)cc3)cs2)cc1`, for which the EC50 is 9.53 µM.

As to `Cc1cc(N2CCN(c3ccc([N+](=O)[O-])c4cccnc34)CC2)c2ccccc2n1`, the EC50 entry was “inactive”.

As to `C=CCn1c(O)c(C2=c3ccccc3=NC2=O)sc1=Nc1ccc(O)cc1`, the EC50 is 18.3 µM.

Take `COc1ccc(-c2cc(=O)oc3c(C)c(OC(=O)c4cccs4)ccc23)cc1`: the EC50 was > 80 µM (inactive).

Consider `COc1cc(/C=N/Nc2nc(Nc3ccc(C)cc3)nc(-n3nc(C)cc3C)n2)cc(OC)c1OC`, for which the EC50 is > 80 µM (inactive).

Consider `CN(C)CCOc1ccc(-c2c(-c3ccccc3)sc3ccccc23)cc1`, for which the EC50 was 17 µM.

As for `CSC1=NC(C)(C)C=C(/C=C/c2ccc(Cl)cc2)N1`, the EC50 is 9.17 µM.

For `CCc1ccc(-n2c(SCC(=O)c3ccc4c(c3)NC(=O)CO4)nc3ccccc3c2=O)cc1`, the EC50 is 9.34 µM.

With `N#Cc1ccc(N/N=C/c2cn(-c3ccccc3)nc2-c2ccccc2)c([N+](=O)[O-])c1`, the EC50 result was “inactive”.

On to `CCn1cc(C(=O)NC(=S)Nc2sc3c(c2C(=O)OC)CCCCCC3)cn1`, for which the EC50 result is “inactive”.

On to `O=C(O)c1ccc(N2C(=O)/C(=C/c3ccc(-c4ccc([N+](=O)[O-])cc4)o3)C=C2c2ccccc2)cc1`, for which the EC50 is > 80 µM (inactive).

For `COc1ccccc1N=Cc1c(O)c2ccccc2oc1=O`, the EC50 was 9.23 µM.

For the compound `Cc1ccc(Nc2nc(NCCO)c3ccccc3n2)cc1C`, the EC50 is > 80 µM (inactive).

For the compound `O=C1c2cccc3cc(Br)cc(c23)C(=O)N1Nc1ccc(Br)cc1`, the EC50 entry is “inactive”.

Turning to `Cc1[nH]c2ccccc2c1/C=C/c1nc2ccccc2c(=O)n1-c1ccc([N+](=O)[O-])cc1`, the EC50 is > 80 µM (inactive).

With `CCCCN1C(=O)/C(=C2/Sc3ccc(OC)cc3N2CC)SC1=S`, the EC50 entry is “inactive”.

For the compound `O=C(N/N=C/C(Br)=C\c1ccccc1)c1n[nH]c2c1CCC2`, the EC50 entry is “inactive”.

`O=C(COc1ccc(/C=N/NC(=O)c2cc3ccccc3o2)cc1Br)Nc1ccccc1`: the EC50 was 3.69 µM.

For `CN(C)CC/C=C1\c2ccc(F)cc2Sc2cc(F)c(Cl)cc21`, the EC50 was > 80 µM (inactive).

For `CCc1ccc(OCCNc2cc(N3CCNC(C)C3)ccc2[N+](=O)[O-])cc1` (stereo unspecified), the EC50 is > 80 µM (inactive).

`N=c1n(CC(=O)c2ccc([N+](=O)[O-])cc2)c2ccccc2n1Cc1ccc(Cl)cc1`: the EC50 was 7.87 µM.

Take `CC(C)(C)c1csc(NC(=O)c2ccc(Cl)s2)n1`: the EC50 was > 80 µM (inactive).

Consider `O=c1oc(CCCO)cc2ccc(/C=C/c3cccc([N+](=O)[O-])c3)cc12`, for which the EC50 is > 80 µM (inactive).

For `Cn1c(-c2ccccc2)c(/C=N/NC(=O)c2ccc(O)cc2)c2ccccc21`, the EC50 was > 80 µM (inactive).

Regarding `O=C(C[C@@H]1C/C=C/CC[C@H](Cc2ccc(F)cc2)C(=O)OC[C@@H](Cc2ccccc2)NC1=O)N[C@H](CO)Cc1ccccc1`, the EC50 was 14.4 µM.

In the case of `COc1cc(CNCCO)cc(Cl)c1OCc1ccc(Cl)cc1Cl`, the EC50 was > 80 µM (inactive).

As to `Cc1ccc2c(n1)sc1c(-c3ccc(Br)cc3)c(C#N)c(N)nc12`, the EC50 is > 80 µM (inactive).

Take `Cc1ccc(-c2nnc(-c3ccc(NC(=O)c4cccs4)cc3)o2)cc1`: the EC50 is 12.1 µM.

As to `CCOc1ccc(-n2c(C)cc(C(=O)CCl)c2C)cc1`, the EC50 is 6.73 µM.

Regarding `Cc1ccc(-c2ccnc(-c3ccc(O)cc3)n2)cc1`, the EC50 is > 80 µM (inactive).

As to `CCN(CC)c1ccc(C(=O)OCC(=O)Nc2cc3oc4ccccc4c3cc2OC)cc1`, the EC50 is 20 µM.

`O=C(COc1ccc(Cl)cc1Cl)NN=C1c2ccccc2-c2ccccc21`: the EC50 entry was “inactive”.

For the compound `CCCc1nc2ccccc2c(=O)n1/N=C/c1ccc(O)c(O)c1`, the EC50 is 15 µM.

Consider `CC1CCN(Cc2c(C(=O)N/N=C/c3ccc(C(C)C)cc3)nnn2-c2nonc2N)CC1`, for which the EC50 result is “inactive”.

Take `Cc1cc(C)c2c(CCl)cc(=O)oc2c1`: the EC50 is 19.1 µM.

With `O=C(Nc1ccc(Br)cc1)c1cc(-c2ccncc2)nc2ccccc12`, the EC50 was 12.7 µM.

As to `CCc1ccc2nc(N(CCCN(C)C)C(=O)c3ccc(S(=O)(=O)N4CCc5ccccc5C4)cc3)sc2c1`, the EC50 was 12.7 µM.

As for `COC(=O)Cc1csc(/N=C/c2c(O)n(-c3cccc(C(F)(F)F)c3)c(=O)c3ccccc23)n1`, the EC50 is > 80 µM (inactive).

As for `Cc1ccc2nc(-c3ccc(NC(=S)NC4CC(C)(C)NC(C)(C)C4)cc3)sc2c1`, the EC50 was 9.04 µM.

As to `CC1CCCN(c2ccc(C(=O)NCc3cccs3)cn2)C1` (stereo unspecified), the EC50 is > 80 µM (inactive).

Regarding `O=Cc1cc2ccccc2nc1SCc1ccc(Cl)c(Cl)c1`, the EC50 result is “inactive”.

For the compound `Cc1ccc2c(c1)c(N=NC(N)=S)c(O)n2Cc1ccccc1`, the EC50 is > 80 µM (inactive).

In the case of `Cc1ccc(NC(=O)CSc2nc3ccccc3c3nc4ccccc4n23)cc1`, the EC50 is 6.26 µM.

With `Cc1ccc2nc(N(CCCN(C)C)C(=O)c3ccc(S(=O)(=O)N4CCc5ccccc5C4)cc3)sc2c1`, the EC50 was 10.9 µM.

As to `Cc1ccc2c(c1)C(=O)C(=O)N2Cc1ccc(Br)cc1`, the EC50 entry was “inactive”.

Regarding `CCOc1ccccc1NC(=O)Cn1c(=O)n(-c2ccccc2)c(=O)c2oc3ccccc3c21`, the EC50 is > 80 µM (inactive).

`CCOC(=O)c1nnc(-c2ccccc2)nc1Sc1ccccc1Cl`: the EC50 is 14.3 µM.

Turning to `CC1=CC(C)(C)N2C(=O)C(=O)c3cc(OC(=O)c4ccco4)cc1c32`, the EC50 entry was “inactive”.

For the compound `CN(C)CCCN(C(=O)c1cc(-c2cccs2)nc2ccccc12)c1nc2ccc(F)cc2s1`, the EC50 is 15.9 µM.

In the case of `COc1ccc2nc(C)cc(SCC(=O)N/N=C/c3cccc4ccccc34)c2c1`, the EC50 entry is “inactive”.

Regarding `CCn1c(/C=C/c2c(C)[nH]c3ccccc23)nc2ccccc2c1=O`, the EC50 is > 80 µM (inactive).

On to `Cc1ccc(Cn2c(C(C)Nc3nc(-c4ccc(F)cc4)cs3)nc3cc(Cl)c(Cl)cc32)cc1` (stereo unspecified), for which the EC50 entry is “inactive”.

With `CCC(=O)Nc1cccc(C(=O)/C=C/c2ccc(F)cc2)c1`, the EC50 is 12.1 µM.

For `COC(=O)c1ccc(COc2ccccc2/C=C(\C#N)C(=O)Nc2c(C)cccc2C)cc1`, the EC50 is 17.4 µM.

For `O=C(NCc1ccccc1Cl)c1cccc2c1C(=O)c1ccc(-c3ccc(OC(F)(F)F)cc3)cc1S2(=O)=O`, the EC50 is 9.15 µM.

Regarding `CCc1ccc(-c2cc(C(F)(F)F)n3nc(C(=O)Nc4cnn(Cc5ccc(C)cc5)c4)cc3n2)s1`, the EC50 was 3.35 µM.

With `COc1ccc2nc(NC(=O)c3cccc(-c4cc5ccccc5oc4=O)c3)sc2c1`, the EC50 is > 80 µM (inactive).

`COc1ccc(-c2nc3scc(-c4ccc(OC)c(OC)c4)c3c(=O)o2)cc1`: the EC50 is > 80 µM (inactive).

As for `COc1ccc([N+](=O)[O-])cc1COc1ccc2c(-c3ccccc3)cc(=O)oc2c1`, the EC50 result was “inactive”.

Take `O=C(Cn1c2ccccc2c(=O)c2cc([N+](=O)[O-])ccc21)Nc1ccccc1Cl`: the EC50 result is “inactive”.

With `Brc1ccc2c(c1)C(c1ccc(N3CCOCC3)cc1)=NNC(c1cccs1)=N2`, the EC50 entry was “inactive”.

With `Cc1ccc(NC(=O)c2cc(S(=O)(=O)N(C)C)ccc2N2CCCC2)cc1F`, the EC50 entry was “inactive”.

Consider `O=C(Nc1ccc([N+](=O)[O-])cc1)C(Cc1ccccc1)N1C(=O)c2cccc3cccc(c23)C1=O` (stereo unspecified), for which the EC50 entry is “inactive”.

As for `CCOC(=O)c1c(NC(=O)c2cc3n(n2)C(C(F)(F)F)CC(c2cccs2)N3)sc(C)c1C` (stereo unspecified), the half-maximal effective concentration (EC50) was 8.7 µM.

For the compound `O=[N+]([O-])c1ccc(N/N=C/c2cccc(O)c2O)c(S(=O)(=O)N2CCOCC2)c1`, the half-maximal effective concentration (EC50) is 7.48 µM.

`CCOc1cc2c3c(c1)C(C)=CC(C)(C)N3C(=O)C2=O`: the EC50 entry is “inactive”.

On to `COc1ccc2[nH]c3nc(SCc4nnc(-c5ccc(C)cc5)o4)nnc3c2c1`, for which the EC50 is 19.7 µM.

`CCC1(c2ccc(F)cc2)NC(=O)N(CC(=O)Nc2ccc(-c3nc4ccc(C)cc4s3)cc2)C1=O` (stereo unspecified): the EC50 was > 80 µM (inactive).

For the compound `CCOC(=O)C(=CNc1nc(-c2ccccc2)c(C(=O)Nc2ccc(-c3ccccc3)cc2)s1)C(=O)OCC`, the EC50 result is “inactive”.

On to `c1ccc(N=Nc2ccc3cccccc2-3)cc1`, for which the EC50 is 11 µM.

As for `CCN(CC)S(=O)(=O)c1ccc(N/N=C(\C)c2ccc3c(c2)OCO3)c([N+](=O)[O-])c1`, the EC50 entry is “inactive”.

For `CCc1ccc(NC(=O)C(CC)Sc2nc3cc4c(cc3c(=O)n2Cc2ccco2)OCO4)cc1` (stereo unspecified), the EC50 was > 80 µM (inactive).

Turning to `Cc1ccc(NC(=O)c2ccc(N/N=C/c3cccc(O)c3)c([N+](=O)[O-])c2)cc1`, the EC50 is 6.64 µM.

Take `CCCCCCCCCCOC(=O)Cn1c(COc2ccccc2OC)[n+](C)c2ccccc21`: the EC50 was 12.8 µM.

Turning to `OCCNc1nc(Nc2ccc(Cl)c(Cl)c2)nc2ccccc12`, the EC50 was 10.8 µM.

Consider `CC(C)c1ccc(C2C3=C(COC3=O)Nc3cc4c(cc32)OCO4)cc1` (stereo unspecified), for which the EC50 result was “inactive”.

For the compound `CCCCN(CC)S(=O)(=O)c1ccc(C(=O)N(CCCN(C)C)c2nc3cc(C)cc(C)c3s2)cc1`, the EC50 is 11.4 µM.

As to `CCOC(=O)/C(=C\c1ccccc1)C(=O)c1cc(C(C)=O)c(Nc2ccccc2)s1`, the EC50 was 3.71 µM.

Turning to `CCOc1ccc(S(=O)(=O)Nc2cccc(C(=O)NCC3(N4CCCCC4)CCCCC3)c2)cc1`, the EC50 result was “inactive”.

With `CC1CCc2c(sc(NC(=O)CCc3nc4ccccc4c(=O)[nH]3)c2C#N)C1` (stereo unspecified), the EC50 result was “inactive”.

`Cc1ccc2nc(SCC(=O)Nc3cc(C(F)(F)F)ccc3N3CCOCC3)[nH]c2c1`: the EC50 entry was “inactive”.

As for `Cc1cc(C)c2sc(N(CCCN(C)C)C(=O)c3ccc(S(=O)(=O)N4CCCc5ccccc54)cc3)nc2c1`, the EC50 is > 80 µM (inactive).

Take `COc1ccc(-c2cc(C(F)F)n3ncc(C(=O)Nc4ccc(C(=O)N5CCOCC5)cc4)c3n2)cc1`: the EC50 was > 80 µM (inactive).

Take `CCOC(=O)c1nnc(-c2ccccc2)nc1Sc1c(Cl)cccc1Cl`: the EC50 was 12.9 µM.

`Cc1ccc(-c2nnn(CC(=O)N(Cc3cccs3)C(C(=O)NC3CCCCC3)c3ccco3)n2)o1` (stereo unspecified): the EC50 is > 80 µM (inactive).

For the compound `COc1ccc(-c2csc3nc(-c4ccc(C)cc4)oc(=O)c23)cc1OC`, the EC50 was > 80 µM (inactive).
